Experiment: Compound was evaluated for the inhibition of serum-opsonized zymosan stimulated myeloperoxidase release from human neutrophil

IC50: 7.5 µM
Structure (SMILES): COc1ccc2sc(C(=O)Nc3nnn[nH]3)c(OC(C)C)c2c1

Reference: BindingDB's records for doi:10.1021/jm00083a023 (Warner-Lambert, 1992)
